In PubChem BioAssay (NCI):
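Growth conditions: 96-well plates. Treatment: test compound, 48 hours, 5 concentrations. Analysis: linear interpolation between bracketing concentrations; unreached endpoints set to highest concentration. GI50 = concentration required for 50% inhibition of growth. The concentration for full growth arrest is given as TGI.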

Key:
Test in all cases: DTP human tumour cell line panel, 48 h
A549 NSCLC = tested on: A549 NSCLC
BT-549 breast = tested on: BT-549 breast
HCC-2998 colon = tested on: HCC-2998 colon
HOP-62 NSCLC = tested on: HOP-62 NSCLC
MALME-3M melanoma = tested on: MALME-3M melanoma
OVCAR-3 ovarian = tested on: OVCAR-3 ovarian
SF-295 CNS = tested on: SF-295 CNS
UO-31 renal = tested on: UO-31 renal
HCT-116 colon = tested on: HCT-116 colon
KM12 colon = tested on: KM12 colon

SMILES | GI50 (A549 NSCLC) [µM] | TGI (A549 NSCLC) [µM] | GI50 (BT-549 breast) [µM] | TGI (BT-549 breast) [µM] | GI50 (HCC-2998 colon) [µM] | TGI (HCC-2998 colon) [µM] | GI50 (HOP-62 NSCLC) [µM] | TGI (HOP-62 NSCLC) [µM] | GI50 (MALME-3M melanoma) [µM] | TGI (MALME-3M melanoma) [µM] | GI50 (OVCAR-3 ovarian) [µM] | TGI (OVCAR-3 ovarian) [µM] | GI50 (SF-295 CNS) [µM] | TGI (SF-295 CNS) [µM] | GI50 (UO-31 renal) [µM] | TGI (UO-31 renal) [µM] | TGI (HCT-116 colon) [µM] | TGI (KM12 colon) [µM] | GI50 (HCT-116 colon) [µM] | GI50 (KM12 colon) [µM]
CC(C)=CC/C=C(/C)[C@H]1CC[C@]2(C)[C@@H]1CC[C@@H]1[C@@]3(C)CCCNC(C)(C)[C@@H]3CC[C@]12C | 2.15 | 4.88 | 12.4 | 32.5 | 1.97 | 3.56 | 1.9 | 3.9 | 1.97 | 4.69 | 2.08 | 4.28 | 2 | 3.83 | 10.1 | 23.4 | – | – | – | –
CN(C)/C=N/c1nc2c(ncn2C2OC(CO)C(O)C2O)c(=O)[nH]1 (configuration not stated) | – | > 100 | – | – | – | > 100 | – | > 100 | – | > 100 | – | > 100 | – | > 100 | – | > 100 | > 100 | > 100 | – | –
COc1ccc2c3c([nH]c2c1[N+](=O)[O-])C(C)=NCC3 | – | > 100 | – | – | – | > 100 | – | > 100 | – | – | – | > 100 | – | > 100 | – | > 100 | > 100 | > 100 | – | –
Cn1c2c(c3ccccc31)C1CCCCCCC1C1C(=O)OC(=O)C21 (configuration not stated) | – | > 100 | – | – | – | 70.3 | – | – | – | 69 | – | 47.8 | – | > 100 | – | > 100 | – | > 100 | – | –
CC1=NNC(=O)C2CCC(=O)N12 (configuration not stated) | – | > 100 | – | – | – | > 100 | – | > 100 | – | > 100 | – | > 100 | – | – | – | > 100 | > 100 | > 100 | – | –
COC(=O)c1cc2c(s1)C(=O)c1ccccc1-2 | – | > 100 | – | – | – | > 100 | – | > 100 | – | > 100 | – | > 100 | – | > 100 | – | > 100 | > 100 | > 100 | – | –
O=[N+]([O-])c1ccc(C2=Nn3cnnc3SC2)o1 | – | 56.7 | – | – | – | 29.2 | – | 89.5 | – | – | – | 31.7 | – | 34.6 | – | 36.5 | 30.8 | 47.6 | – | –
O=C(CCn1[nH]c(=O)c(Cl)c(Cl)c1=O)NO | – | > 100 | – | – | – | > 100 | – | > 100 | – | > 100 | – | > 100 | – | > 100 | – | > 100 | – | > 100 | – | –
COc1cc(C2CC(c3cccc(Br)c3)=NN2C(C)=O)cc(OC)c1OC (configuration not stated) | 0.635 | > 100 | 10.2 | 40.7 | 1.11 | 15.7 | 3.56 | 62.8 | – | – | 0.158 | 0.61 | 0.238 | 16.3 | 3.33 | > 65.6 | > 55.9 | 18 | 0.479 | 0.247
[N-]=[N+]=NC12CC3C4CC5CC3C(C1)C(C5)C4C2 | – | > 100 | – | – | – | > 100 | – | > 100 | – | > 100 | – | > 100 | – | > 100 | – | > 100 | > 100 | > 100 | – | –
CC(C)(C)CC(C)(C)c1cc2c(O)c(c1)Cc1cc(C(C)(C)CC(C)(C)C)cc(c1O)Cc1cc(C(C)(C)CC(C)(C)C)cc(c1O)Cc1cc(C(C)(C)CC(C)(C)C)cc(c1O)C2 | – | > 100 | – | – | – | > 100 | – | > 100 | – | > 100 | – | > 100 | – | > 100 | – | > 100 | > 100 | > 100 | – | –
CN(C)c1ccc(C(C=C2c3ccccc3Sc3ccccc32)=C(C#N)C#N)cc1 | – | > 100 | – | – | – | > 100 | – | > 100 | – | > 100 | – | > 100 | – | > 100 | – | > 100 | > 100 | > 100 | – | –
COc1ccc(C(=O)C(c2ccc(OC)cc2)C2(O)C(=O)Nc3ccc([N+](=O)[O-])cc32)cc1 (configuration not stated) | – | > 100 | – | – | – | – | – | > 100 | – | > 100 | – | > 100 | – | > 100 | – | > 100 | > 100 | > 100 | – | –
CCOc1ccccc1C=C1c2ccccc2C(=O)c2ccccc21 | – | > 100 | – | – | – | 21.9 | – | 36.3 | – | > 100 | – | 10.5 | – | > 100 | – | 13.6 | 29.5 | > 100 | – | –
CC(C)c1ccccc1NC(=O)CCc1n[nH]c(=S)o1 | – | > 100 | – | – | – | > 100 | – | > 100 | – | > 100 | – | > 100 | – | > 100 | – | > 100 | > 100 | > 100 | – | –
N#Cc1nc(Nc2cccc3ccccc23)sc1N | – | > 100 | – | – | – | 41.2 | – | > 100 | – | > 100 | – | > 100 | – | > 100 | – | 49 | > 100 | > 100 | – | –
CC(C)N(C(=O)C12C3C4C5(C#N)C3C1(C#N)C5C42I)C(C)C (configuration not stated) | – | > 100 | – | – | – | > 100 | – | > 100 | – | > 100 | – | > 100 | – | > 100 | – | > 100 | 31.5 | > 100 | – | –
O=C(/C=C/c1ccccc1O)c1ccccc1O | – | > 100 | – | – | – | > 100 | – | > 100 | – | > 100 | – | > 100 | – | > 100 | – | > 100 | > 100 | > 100 | – | –
COc1cc(C(Cc2ccccc2)NC(C)=O)oc(=O)c1 (configuration not stated) | – | > 100 | – | – | – | > 100 | – | > 100 | – | > 100 | – | > 100 | – | > 100 | – | > 100 | – | > 100 | – | –
S=C1NC2(CCCCCC2)NN1c1ccccc1 | – | > 100 | – | > 100 | – | – | – | > 22.7 | – | > 100 | – | > 100 | – | > 100 | – | > 100 | – | > 100 | – | –
CCC[CH2][Sn]1([CH2]CCC)[O]N=C(c2ccccc2)C(c2ccccc2)[O]1 (configuration not stated) | 10.5 | 22.3 | – | – | 2.18 | 4.47 | 3.24 | 7.93 | 1.13 | 2.49 | 1.42 | 2.84 | 1.73 | 3.41 | 1.68 | 3.46 | 3.35 | 14.1 | 1.67 | 3.49
CCCN=C(N)NC#N | – | > 100 | – | – | – | > 100 | – | > 100 | – | > 100 | – | > 100 | – | > 100 | – | > 100 | > 100 | > 100 | – | –
COc1cccc(/C=C/c2cc(OC)c(OC)c(OC)c2)c1 | – | > 100 | – | – | – | > 100 | – | > 100 | – | > 100 | – | > 100 | – | – | – | > 100 | > 100 | > 100 | – | –
